Tested on: not listed separately
Assay: Inhibition of Pseudomonas fluorescens porphobilinogen synthase by PBGS assay

SMILES	IC50 [mM]
C[C@H](NC(=O)C(F)(F)F)C(=O)CCC(=O)O	3
C=C(NC(C)=O)C(=O)CCC(=O)O [ALAREMYCIN]	2.6
C[C@@H](NC(=O)C(F)(F)F)C(=O)CCC(=O)O	4.1
O=C(O)CCC(=O)CNC(=O)CC(F)(F)F	0.5
O=C(O)CCC(=O)CNC(=O)CCC(F)(F)F	1.3
CC(=O)N[C@@H](C)C(=O)CCC(=O)O	1.1
C=C(NC(=O)CCC(F)(F)F)C(=O)CCC(=O)O	0.051
C=C(NC(=O)C(F)(F)F)C(=O)CCC(=O)O	0.022
CC(=O)NCC(=O)CCC(=O)O	2.5
C=C(NC(=O)CC(F)(F)F)C(=O)CCC(=O)O	0.9
CC(=O)N[C@H](C)C(=O)CCC(=O)O [ALAREMYCIN 2]	0.7
O=C(O)CCC(=O)CNC(=O)C(F)(F)F	8

Tested on: Pseudomonas fluorescens
Assay: Ratio of IC50 of Alaremycin to IC50 of compound for Pseudomonas fluorescens porphobilinogen synthase

SMILES	Ratio IC50
C=C(NC(=O)CCC(F)(F)F)C(=O)CCC(=O)O	50
C=C(NC(=O)C(F)(F)F)C(=O)CCC(=O)O	100

From ChEMBL document CHEMBL1770057, “Synthesis and antibacterial activity of alaremycin derivatives for the porphobilinogen synthase” (Bioorg Med Chem Lett, 2011)
